Here are results for 50 compounds from ChEMBL document CHEMBL1128211, “3D-quantitative structure-activity relationships of human immunodeficiency virus type-1 proteinase inhibitors: comparative molecular field analysis of 2-heterosubstituted statine derivatives-implications for the design of novel inhibitors” (J Med Chem, 1995).

Structures are written as SMILES.

This experiment deals with Human immunodeficiency virus type 1 protease (Human immunodeficiency virus 1, UniProt Q72874). Description: Inhibitory activity was determined against HIV type 1 protease.
Turning to `CC(C)[C@H](NC(=O)OCc1ccccc1)C(=O)N[C@@H](Cc1ccccc1)[C@@H](O)[C@@H](NCc1ccccc1)C(=O)N[C@H](C(=O)NCc1ccncc1)C(C)C`, the Ki – broadly, a dissociation constant, usually derived from enzyme kinetics or from competition with a known ligand – was 11 nM.

Turning to `CC(C)(C)[C@H](NC(=O)OCc1ccccc1)C(=O)N[C@@H](Cc1ccccc1)[C@@H](O)[C@@H](NCc1ccccc1)C(=O)N[C@H]1c2ccccc2CC1O` (stereo not given in full), the affinity corresponds to a Ki of 14.5 nM.

Consider `CC(C)[C@H](NC(=O)[C@H](NCc1ccccc1)[C@H](O)[C@H](Cc1ccccc1)NC(=O)[C@@H](NC(=O)OCC1c2ccccc2-c2ccccc21)C(C)(C)C)C(=O)NCc1ccccc1`, for which the Ki is 15.8 nM.

`COc1ccc(CN[C@@H](C(=O)N[C@H](C(=O)NCc2nc3ccccc3[nH]2)C(C)C)[C@H](O)[C@H](Cc2ccccc2)NC(=O)[C@@H](NC(=O)CCc2ccc(P(=O)(O)O)cc2)C(C)(C)C)cc1` gave a Ki of 7.76 nM. This Ki lies about 2-fold lower than the previous one.

`CC(C)[C@H](NC(=O)[C@H](NCc1ccccc1)[C@H](O)[C@H](Cc1ccccc1)NC(=O)[C@H](CC(N)=O)NC(=O)c1ccc2ccccc2n1)C(=O)NCc1ccccc1` had a Ki of 24 nM. This Ki lies about 3.1-fold higher than the previous one.

With `CC(C)(C)[C@H](NC(=O)OCc1ccccc1)C(=O)N[C@@H](Cc1ccccc1)[C@@H](O)[C@@H](NCc1ccc(CNC(=O)CCc2nc3ccccc3[nH]2)cc1)C(=O)NCc1ccccc1`, the affinity corresponds to a Ki of 53.7 nM.

For `COC(=O)CC[C@H](NC(=O)[C@H](NCc1ccc(OC)cc1)[C@H](O)[C@H](Cc1ccccc1)NC(=O)[C@@H](NC(=O)OCc1ccccc1)C(C)C)C(=O)NCc1nc2ccccc2[nH]1`, the Ki was 11 nM.

On to `CC(C)[C@H](NC(=O)OCc1ccccc1)C(=O)N[C@@H](Cc1ccccc1)[C@@H](O)[C@@H](NCc1ccccc1)C(=O)N[C@H](C(=O)OCc1nc2cc(Cl)c(Cl)cc2[nH]1)C(C)C`, for which affinity was put at a Ki of 22.9 nM. Compared with the last compound, the Ki is about 2.1-fold higher.

The compound `CC(C)[C@H](NC(=O)[C@H](NCc1ccccc1)[C@H](O)[C@H](Cc1ccccc1)NC(=O)[C@@H](N)C(C)(C)C)C(=O)NCc1ccccc1` showed a Ki of 91.2 nM.

Regarding `CC(C)[C@H](NC(=O)OCc1ccccc1)C(=O)N[C@@H](CCc1ccccc1)[C@@H](O)[C@@H](NCc1ccc(Cl)cc1)C(=O)N[C@H](C(=O)NCc1nc2ccccc2[nH]1)C(C)C`, affinity was put at a Ki of 17 nM.

Compound `COc1ccc(CN[C@@H](C(=O)N[C@H](C(=O)Nc2nc3ccccc3[nH]2)C(C)C)[C@H](O)[C@H](Cc2ccccc2)NC(=O)[C@@H](NC(=O)OCc2ccccc2)C(C)C)cc1` had an inhibitory constant (Ki) of 10 nM. Against the preceding compound, the Ki is about 1.7-fold lower.

Consider `CC(C)[C@H](N)C(=O)C[C@@H](Cc1ccccc1)[C@@H](O)[C@H]1CCc2ccc(cc2)OCCOCCOCCCOCCNC(=O)[C@H](C(C)C)CC1=O`, for which the Ki was 7.59 nM. The Ki values of the last two compounds are within 1.5-fold of each other.

The compound `CC(=O)NCc1ccc(CN[C@@H](C(=O)N[C@H]2c3ccccc3CC2O)[C@H](O)[C@H](Cc2ccccc2)NC(=O)[C@@H](NC(=O)OCc2ccccc2)C(C)(C)C)cc1` (stereo not given in full) gave a Ki of 5.75 nM.

The compound `CC(C)[C@H](NC(=O)OCc1ccccc1)C(=O)N[C@@H](Cc1ccccc1)[C@@H](O)[C@@H](NCc1ccccc1)C(=O)N[C@H](C(=O)NCc1ccc(Br)cc1)C(C)C` showed a Ki of 15.1 nM.

For `COc1ccc(CCN[C@@H](C(=O)N[C@H](C(=O)NCc2nc3ccccc3[nH]2)C(C)C)[C@H](O)[C@H](Cc2ccccc2)NC(=O)[C@@H](NC(=O)OCc2ccccc2)C(C)C)cc1`, the affinity, expressed as Ki, was 12.6 nM.

As to `CCOc1ccc(CN[C@@H](C(=O)N[C@H](C(=O)NCc2nc3ccccc3[nH]2)C(C)C)[C@H](O)[C@H](Cc2ccccc2)NC(=O)[C@@H](NC(=O)OCc2ccccc2)C(C)C)cc1`, the Ki is 24 nM. Against the preceding compound, the Ki is about 1.9-fold higher.

Compound `CC(C)[C@H](NC(=O)[C@H](NCc1ccccc1)[C@H](O)[C@H](Cc1ccccc1)NC(=O)[C@@H](NC(=O)COc1ccccc1)C(C)(C)C)C(=O)NCc1ccccc1` showed a Ki of 15.8 nM.

As for `CC(C)[C@H](NC(=O)[C@H](NCc1ccccc1)[C@H](O)[C@H](Cc1ccccc1)NC(=O)[C@@H](NC(=O)CCc1ccc(O)cc1)C(C)(C)C)C(=O)NCc1ccccc1`, the Ki was 12.9 nM.

On to `COc1ccc(CN[C@@H](C(=O)NCc2nc3ccccc3[nH]2)[C@H](O)[C@H](Cc2ccccc2)NC(=O)OC(C)(C)C)cc1`, for which the Ki is 2290 nM. This Ki is about 180-fold higher than that of the compound before.

`CC(C)[C@H](NC(=O)[C@H](NCc1ccccc1)[C@H](O)[C@H](Cc1ccccc1)NC(=O)[C@@H](NC(=O)[C@@H](O)Cc1ccccc1)C(C)(C)C)C(=O)NCc1ccccc1` showed a Ki of 15.1 nM.

`CC[C@H](C)[C@H](NC(=O)[C@H](NCc1ccccc1)[C@H](O)[C@H](Cc1ccccc1)NC(=O)[C@@H](NC(=O)OCc1ccccc1)C(C)C)C(=O)NCc1ccccc1` showed an inhibition constant (Ki) of 43.7 nM.

Compound `COc1ccc(CN[C@@H](C(=O)N[C@H](C(=O)NCc2ccc(OC)cc2OC)C(C)C)[C@H](O)[C@H](Cc2ccccc2)NC(=O)[C@@H](NC(=O)OCc2ccccc2)C(C)C)cc1` gave a Ki of 4.17 nM.

Turning to `COc1ccc(CN[C@@H](C(=O)N[C@H](C(=O)NCc2nc3ccccc3[nH]2)C(C)C)[C@H](O)[C@H](Cc2ccccc2)NC(=O)[C@@H](NC(=O)CCc2ccc(C(P(=O)(O)OCc3ccccc3)P(=O)(O)OCc3ccccc3)cc2)C(C)(C)C)cc1` (stereo not given in full), affinity was put at a Ki of 5.25 nM.

Regarding `COc1ccc(CN[C@@H](C(=O)N[C@H]2c3ccccc3CC2O)[C@H](O)[C@H](Cc2ccccc2)NC(=O)OC(C)(C)C)cc1` (stereo not given in full), affinity was put at a Ki of 148 nM.

Compound `CC(C)[C@H](NC(=O)OCc1ccccc1)C(=O)N[C@@H](Cc1ccccc1)[C@@H](O)[C@@H](NCc1cccnc1)C(=O)N[C@H](C(=O)NCc1ccccc1)C(C)C` gave a Ki of 7.08 nM.

Regarding `COc1ccc(CN[C@@H](C(=O)N[C@H](C(=O)NCc2nc3cc[nH]cc-3n2)C(C)C)[C@H](O)[C@H](Cc2ccccc2)NC(=O)[C@@H](NC(=O)OCc2ccccc2)C(C)C)cc1`, the inhibition constant (Ki) is 4.17 nM.

Take `COc1ccc(CN[C@@H](C(=O)NCC(=O)NCc2nc3ccccc3[nH]2)[C@H](O)[C@H](Cc2ccccc2)NC(=O)[C@@H](NC(=O)OCc2ccccc2)C(C)C)cc1`: the Ki is 15.5 nM.

Take `COc1ccc(CN[C@@H](C(=O)N[C@H](C(=O)NCCc2nc3ccccc3[nH]2)C(C)C)[C@H](O)[C@H](Cc2ccccc2)NC(=O)[C@@H](NC(=O)OCc2ccccc2)C(C)C)cc1`: affinity was put at a Ki of 8.91 nM. Against the preceding compound, the Ki is about 1.7-fold lower.

`COc1ccc(CN[C@@H](C(=O)N[C@H](C(=O)NCc2nc3ccccc3[nH]2)c2ccccc2)[C@H](O)[C@@H](N)Cc2ccccc2)cc1` showed a Ki of 89.1 nM.

The compound `COc1ccc(CN[C@@H](C(=O)N[C@H](C(=O)NCCN(C)C)C(C)C)[C@H](O)[C@H](Cc2ccccc2)NC(=O)[C@@H](NC(=O)OCc2ccccc2)C(C)C)cc1` showed a Ki of 25.7 nM. Compared with the last compound, the Ki is about 3.5-fold lower.

The compound `Cc1cn(CCO)c(=O)n(CCOC(=O)[C@@H](NC(=O)[C@H](NCc2ccccc2)[C@H](O)[C@H](Cc2ccccc2)NC(=O)[C@@H](NC(=O)OCc2ccccc2)C(C)C)C(C)C)c1=O` had a Ki of 550 nM.

Compound `CCOC(=O)[C@H](NCc1ccc(CNCc2ccccc2)cc1)[C@H](O)[C@H](Cc1ccccc1)NC(=O)[C@@H](NC(=O)OCc1ccccc1)C(C)C` had an inhibition constant Ki of 1910 nM.

The compound `COc1ccc(CN[C@@H](C(=O)N[C@H](C(=O)NCCNc2ccc([N+](=O)[O-])cn2)C(C)C)[C@H](O)[C@H](Cc2ccccc2)NC(=O)[C@@H](NC(=O)OCc2ccccc2)C(C)C)cc1` gave a Ki of 9.55 nM.

In turn, `CCOC(=O)[C@H](NCc1ccc(CN)cc1)[C@H](O)[C@H](Cc1ccccc1)NC(=O)[C@@H](NC(=O)OCc1ccccc1)C(C)C` gave a Ki of 2690 nM. Compared with the last compound, the Ki is about 280-fold higher.

In turn, `COc1ccc(CN[C@@H](C(=O)N[C@H](C(=O)NCc2nc3cc[nH]cc-3n2)C(C)C)[C@H](O)[C@H](Cc2ccccc2)NC(=O)OC(C)(C)C)cc1` had a Ki of 15.1 nM. Compared with the last compound, the Ki is about 180-fold lower.

Turning to `COc1ccc(CN[C@@H](C(=O)NCC(=O)Nc2cnccc2N)[C@H](O)[C@H](Cc2ccccc2)NC(=O)[C@@H](NC(=O)OCc2ccccc2)C(C)C)cc1`, the Ki was 1510 nM.

In turn, `CC(C)[C@H](NC(=O)OCCCCCN)C(=O)N[C@@H](Cc1ccccc1)[C@@H](O)[C@@H](NCc1ccccc1)C(=O)N[C@H](C(=O)NCc1ccccc1)C(C)C` had a Ki of 33.1 nM.

Compound `CC(C)(C)OC(=O)N[C@@H](Cc1ccccc1)[C@@H](O)[C@@H](NCc1ccc(CNC(=O)Nc2ccccc2)cc1)C(=O)N[C@H]1c2ccccc2CC1O` (stereo not given in full) gave a Ki of 33.1 nM.

Compound `CC(C)[C@H](NC(=O)OCc1ccccc1)C(=O)N[C@@H](Cc1ccccc1)[C@@H](O)[C@@H](NCc1ccccc1)C(=O)N[C@H](C(=O)OCc1nc2ccc([N+](=O)[O-])cc2[nH]1)C(C)C` had a Ki of 30.2 nM.

On to `COc1ccc(CN[C@@H](C(=O)N[C@H](C(=O)NCc2nc3ccccc3[nH]2)C(C)C)[C@H](O)[C@H](Cc2ccccc2)NC(=O)[C@@H](NC(=O)CCc2ccc(O)c(I)c2)C(C)(C)C)cc1`, for which the Ki was 4.27 nM.

On to `COc1ccc(CN[C@@H](C(=O)N[C@H](C(=O)Nc2ccc3ncsc3c2)C(C)C)[C@H](O)[C@H](Cc2ccccc2)NC(=O)[C@@H](NC(=O)OCc2ccccc2)C(C)C)cc1`, for which the affinity, expressed as Ki, was 15.8 nM.

Take `CC(C)[C@H](N)C(=O)C[C@@H](Cc1ccccc1)[C@@H](O)[C@H]1CCc2ccc(cc2)OCCOCCCOCCNC(=O)[C@H](C(C)C)CC1=O`: the Ki was 6.92 nM.

The compound `CC(C)[C@H](NC(=O)COc1ccccc1)C(=O)N[C@@H](Cc1ccccc1)[C@@H](O)[C@@H](NCc1ccccc1)C(=O)NCc1ccccc1` showed a Ki of 138 nM.

In turn, `COc1ccc(CN[C@@H](C(=O)N[C@H](C(=O)NCc2nc3ccccc3[nH]2)C(C)C)[C@H](O)[C@H](Cc2ccccc2)NC(=O)OC(C)(C)C)cc1` gave a Ki of 7.76 nM. Compared with the last compound, the Ki is about 18-fold lower.

Compound `CC(C)[C@H](NC(=O)OCc1ccccc1)C(=O)N[C@@H](Cc1ccccc1)[C@@H](O)[C@H](NCc1ccccc1)C(=O)N[C@H](C(=O)NCc1cccnc1)C(C)C` had a Ki of 141 nM.

With `CCOc1ccc(CN[C@@H](C(=O)N[C@H]2c3ccccc3CC2O)[C@H](O)[C@H](Cc2ccccc2)NC(=O)OC(C)(C)C)cc1` (stereo not given in full), the Ki was 91.2 nM. This Ki lies about 1.5-fold lower than the previous one.

Compound `CC(C)(C)[C@H](NC(=O)OCc1ccccc1)C(=O)N[C@@H](Cc1ccccc1)[C@@H](O)[C@@H](NCc1ccccc1)C(=O)N[C@@H]1c2ccccc2CC1O` (stereo not given in full) gave a Ki of 1580 nM.

Compound `COc1ccc(CN[C@@H](C(=O)N[C@H](C(=O)Nc2nc3ccccc3s2)C(C)C)[C@H](O)[C@H](Cc2ccccc2)NC(=O)[C@@H](NC(=O)OCc2ccccc2)C(C)C)cc1` had a Ki of 10.5 nM. This Ki is about 150-fold lower than that of the compound before.

Consider `CC(C)(C)OC(=O)N[C@@H](Cc1ccccc1)[C@@H](O)[C@@H](NCc1ccc(OCCO)cc1)C(=O)N[C@H]1c2ccccc2CC1O` (stereo not given in full), for which the Ki is 79.4 nM.

In turn, `CC(C)(C)OC(=O)N[C@@H](Cc1ccccc1)[C@@H](O)[C@@H](NCc1ccc(CNC(=O)CCc2nc3ccccc3[nH]2)cc1)C(=O)NCc1ccccc1` showed a Ki of 676 nM.
